Structures are written as SMILES.

As usually defined, the inhibition is how much of the control response was suppressed. A high value points to strong suppression.

The test deals with T1, hSOS1 enzyme / KRAS (G12C), GST-Tag, GDP-bound protein (Homo sapiens, UniProt Q07889).
T1 sequence (Q07889 564-1049 limits assumed): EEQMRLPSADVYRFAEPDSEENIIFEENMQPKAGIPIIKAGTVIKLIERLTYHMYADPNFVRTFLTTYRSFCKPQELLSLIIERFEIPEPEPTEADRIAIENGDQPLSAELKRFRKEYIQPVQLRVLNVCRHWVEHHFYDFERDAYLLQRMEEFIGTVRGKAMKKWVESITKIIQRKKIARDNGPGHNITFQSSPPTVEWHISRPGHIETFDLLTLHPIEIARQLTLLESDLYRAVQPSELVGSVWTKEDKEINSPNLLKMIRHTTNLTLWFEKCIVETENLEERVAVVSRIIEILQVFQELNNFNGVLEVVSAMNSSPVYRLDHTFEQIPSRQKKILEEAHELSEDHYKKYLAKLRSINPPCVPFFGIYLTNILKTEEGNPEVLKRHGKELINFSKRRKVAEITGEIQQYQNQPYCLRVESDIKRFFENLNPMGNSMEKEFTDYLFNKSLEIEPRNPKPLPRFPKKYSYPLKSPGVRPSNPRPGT
Briefly: SOS1-mediated KRAS guanine nucleotide exchange (GEF) assay, HTRF ("On Assay"). Type of test: biochemical. To be noted: 1 μM compound. On the procedure:
Biochemical Assay: Measurement of SOS1-Mediated KRAS Guanine Nucleotide Exchange (GEF) Assay
This assay quantifies the HTRF-based SOS1 mediated guanine nucleotide exchange assay detecting GTP binding to KRAS (G12C), GST-Tag, GDP-bound protein. This is also referred as “On Assay”.The assay buffer composition is as follows: 10 mM HEPES pH-7, 150 mM NaCl, 5 mM MgCl2, 1 mM DTT, 0.05% BSA, 0.0025% IGEPAL CA-630 and MilliQ water. 0.5 μl of compounds diluted in assay buffer were dispensed into the respective wells of 384 black well test plate. 4.75 μl of KRAS working solution containing 100 nM KRAS (G12C), GST-Tag, GDP-bound protein GDP-loaded (Reaction biology) and 2 nM Anti GST-Tb cryptate (FRET donor, Cisbio) was added in assay buffer. The components were incubated for 10 min at 25° C.
4.75 μl of hSOS1 working solution containing 20 nM hSOS1 enzyme and 200 nM EDA-GTP-DY-647P (FRET acceptor, synthesized by Jena Bioscience (Germany), supplied as a 1 mM solution) was further added in assay buffer. 4.75 μl of inhibitor control having only 200 nM EDA-GTP-DY-647P1 component without hSOS1 working solution was added in the negative control well. The plate was short spun for few seconds and incubated for 10 min. HTRF was measured using Perkin Elmer-Nivo 5F multimode plate reader.
HTRF settings: EXCITATION FILTER—320/75 nm, EMISSION FILTER (1) —615/8 nm, EMISSION FILTER (2)—665/8 nm
For `CCN1CCN(c2cc3c(N[C@H](C)c4cc(N)cc(C(F)(F)F)c4)nc(N(C)C)nc3cn2)CC1` [Example 49, (R)—N4-(1-(3-amino-5-(trifluoromethyl)phenyl)ethyl)-6-(4-ethylpiperazin-1-yl)-N2,N2-dimethylpyrido[3,4-d]pyrimidine-2,4-diamine], the inhibition at 1 µM is no less than 50%.
The same measure for `CC(C)N1CCN(c2cc3c(N[C@H](C)c4cc(N)cc(C(F)(F)F)c4)nc(N(C)C)nc3cn2)CC1` [Example 50, (R)—N4-(1-(3-amino-5-(trifluoromethyl)phenyl)ethyl)-6-(4-isopropylpiperazin-1-yl)-N2,N2-dimethylpyrido[3,4-d]pyrimidine-2,4-diamine]: no less than 50%; for `C[C@@H](Nc1nc(N2CCC2)nc2cnc(N3CCC(F)(F)CC3)cc12)c1cc(N)cc(C(F)(F)F)c1` [Example 51, (R)—N-(1-(3-amino-5-(trifluoromethyl)phenyl)ethyl)-2-(azetidin-1-yl)-6-(4,4-difluoropiperidin-1-yl)pyrido[3,4-d]pyrimidin-4-amine]: no less than 50%.
For the compound `C[C@@H](Nc1nc(N2CCC2)nc2cnc(N3CCN(C4CCC4)CC3)cc12)c1cc(N)cc(C(F)(F)F)c1` [Example 52, (R)—N-(1-(3-amino-5-(trifluoromethyl)phenyl)ethyl)-2-(azetidin-1-yl)-6-(4-cyclobutylpiperazin-1-yl)pyrido[3,4-d]pyrimidin-4-amine], the inhibition at 1 µM is no less than 50%.
The same measure for `C[C@@H](Nc1nc(N2CCC2)nc2cnc(N(C)C)cc12)c1cc(N)cc(C(F)(F)F)c1` [Example 53, (R)—N4-(1-(3-amino-5-(trifluoromethyl)phenyl)ethyl)-2-(azetidin-1-yl)-N6,N6-dimethylpyrido[3,4-d]pyrimidine-4,6-diamine]: no less than 50%; for `CC(C)Nc1cc2c(N[C@H](C)c3cc(N)cc(C(F)(F)F)c3)nc(N3CCC3)nc2cn1` [Example 54, (R)—N4-(1-(3-amino-5-(trifluoromethyl)phenyl)ethyl)-2-(azetidin-1-yl)-N6-isopropylpyrido[3,4-d]pyrimidine-4,6-diamine]: no less than 50%; for `CC(C)Nc1cc2c(N[C@H](C)c3cc(N)cc(C(F)(F)F)c3)nc(N3CCCC3)nc2cn1` [Example 55, (R)—N4-(1-(3-amino-5-(trifluoromethyl)phenyl)ethyl)-N6-isopropyl-2-(pyrrolidin-1-yl)pyrido[3,4-d]pyrimidine-4,6-diamine]: no less than 50%.
The compound `CNc1cc2c(N[C@H](C)c3cc(N)cc(C(F)(F)F)c3)nc(N3CCC3)nc2cn1` [Example 56, (R)—N4-(1-(3-amino-5-(trifluoromethyl)phenyl)ethyl)-2-(azetidin-1-yl)-N6-methylpyrido[3,4-d]pyrimidine-4,6-diamine] yielded an inhibition at 1 µM of no less than 50%.
The result for `COc1nc(N[C@H](C)c2cc(N)cc(C(F)(F)F)c2)c2cc(N3CCOCC3)ncc2n1` [Example 57, (R)—N-(1-(3-amino-5-(trifluoromethyl)phenyl)ethyl)-2-methoxy-6-morpholinopyrido[3,4-d]pyrimidin-4-amine] reads no less than 50%; that for `COc1nc(N[C@H](C)c2cc(N)cc(C(F)(F)F)c2)c2cc(N3CCC(OC)CC3)ncc2n1` [Example 58, (R)—N-(1-(3-amino-5-(trifluoromethyl)phenyl)ethyl)-2-methoxy-6-(4-methoxypiperidin-1-yl)pyrido[3,4-d]pyrimidin-4-amine], no less than 50%.
The same measure for `C[C@@H](Nc1nc(Cl)nc2cnc(N3CCOCC3)cc12)c1cccc(C(F)F)c1F` [Example 59, (R)-2-chloro-N-(1-(3-(difluoromethyl)-2-fluorophenyl)ethyl)-6-morpholinopyrido[3,4-d]pyrimidin-4-amine]: no less than 50%; for `COC1CCN(c2cc3c(N[C@H](C)c4cccc(C(F)F)c4F)nc(Cl)nc3cn2)CC1` [Example 60, (R)-2-chloro-N-(1-(3-(difluoromethyl)-2-fluorophenyl)ethyl)-6-(4-methoxypiperidin-1-yl)pyrido[3,4-d]pyrimidin-4-amine]: no less than 50%.
The same measure for `C[C@@H](Nc1nc(Cl)nc2cnc(N3CCN(C)CC3)cc12)c1cccc(C(F)F)c1F` [Example 61, (R)-2-chloro-N-(1-(3-(difluoromethyl)-2-fluorophenyl)ethyl)-6-(4-methylpiperazin-1-yl)pyrido[3,4-d]pyrimidin-4-amine]: no less than 50%; for `CCN1CCN(c2cc3c(N[C@H](C)c4cccc(C(F)F)c4F)nc(Cl)nc3cn2)CC1` [Example 62, (R)-2-chloro-N-(1-(3-(difluoromethyl)-2-fluorophenyl)ethyl)-6-(4-ethylpiperazin-1-yl)pyrido[3,4-d]pyrimidin-4-amine]: no less than 50%.
The compound `C[C@@H](Nc1nc(Cl)nc2cnc(C3CCOCC3)cc12)c1cc(N)cc(C(F)(F)F)c1` [Example 63, (R)—N-(1-(3-amino-5-(trifluoromethyl)phenyl)ethyl)-2-chloro-6-(tetrahydro-2H-pyran-4-yl)pyrido[3,4-d]pyrimidin-4-amine] yielded an inhibition at 1 µM of no less than 50%.
The result for `C[C@@H](Nc1nc(Cl)nc2cnc(C3CCOCC3)cc12)c1cccc(C(F)F)c1F` [Example 64, (R)-2-chloro-N-(1-(3-(difluoromethyl)-2-fluorophenyl)ethyl)-6-(tetrahydro-2H-pyran-4-yl)pyrido[3,4-d]pyrimidin-4-amine] reads no less than 50%; that for `C[C@@H](Nc1nc(N(C)C)nc2cnc(C3CCOCC3)cc12)c1cc(N)cc(C(F)(F)F)c1` [Example 65, (R)—N4-(1-(3-amino-5-(trifluoromethyl)phenyl)ethyl)-N2,N2-dimethyl-6-(tetrahydro-2H-pyran-4-yl)pyrido[3,4-d]pyrimidine-2,4-diamine], no less than 50%.
The same measure for `CNc1nc(N[C@H](C)c2cc(N)cc(C(F)(F)F)c2)c2cc(C3CCOCC3)ncc2n1` [Example 66, (R)—N4-(1-(3-amino-5-(trifluoromethyl)phenyl)ethyl)-N2-methyl-6-(tetrahydro-2H-pyran-4-yl)pyrido[3,4-d]pyrimidine-2,4-diamine]: no less than 50%.
As to `C[C@@H](Nc1nc(N2CCC2)nc2cnc(C3CCOCC3)cc12)c1cc(N)cc(C(F)(F)F)c1` [Example 67, (R)—N-(1-(3-amino-5-(trifluoromethyl)phenyl)ethyl)-2-(azetidin-1-yl)-6-(tetrahydro-2H-pyran-4-yl)pyrido[3,4-d]pyrimidin-4-amine], the inhibition at 1 µM is no less than 50%.
The same measure for `C[C@@H](Nc1nc(N2CCC2)nc2cnc(C3CCN(C)CC3)cc12)c1cc(N)cc(C(F)(F)F)c1` [Example 68, (R)—N-(1-(3-amino-5-(trifluoromethyl)phenyl)ethyl)-2-(azetidin-1-yl)-6-(1-methylpiperidin-4-yl)pyrido[3,4-d]pyrimidin-4-amine]: no less than 50%; for `C[C@@H](Nc1nc(N(C)C)nc2cnc(C3CCN(C)CC3)cc12)c1cc(N)cc(C(F)(F)F)c1` [Example 69, (R)—N4-(1-(3-amino-5-(trifluoromethyl)phenyl)ethyl)-N2,N2-dimethyl-6-(1-methylpiperidin-4-yl)pyrido[3,4-d]pyrimidine-2,4-diamine]: no less than 50%.
The same measure for `CCN1CCN(c2cc3c(N[C@H](C)c4cc(N)cc(C(F)(F)F)c4)nc(Cl)nc3cc2F)CC1` [Example 70, (R)—N-(1-(3-amino-5-(trifluoromethyl)phenyl)ethyl)-2-chloro-6-(4-ethylpiperazin-1-yl)-7-fluoroquinazolin-4-amine]: no less than 50%; for `CCN1CCN(c2cc3c(N[C@H](C)c4cc(N)cc(C(F)(F)F)c4)nc(Cl)nc3cc2C)CC1` [Example 71, (R)—N-(1-(3-amino-5-(trifluoromethyl)phenyl)ethyl)-2-chloro-6-(4-ethylpiperazin-1-yl)-7-methylquinazolin-4-amine]: no less than 50%.
Regarding `CCN1CCN(c2cc3c(N[C@H](C)c4cc(N)cc(C(F)(F)F)c4)nc(Cl)nc3cc2OC)CC1` [Example 72, (R)—N-(1-(3-amino-5-(trifluoromethyl)phenyl)ethyl)-2-chloro-6-(4-ethylpiperazin-1-yl)-7-methoxyquinazolin-4-amine], the inhibition at 1 µM was no less than 50%.

For the origin of these results see patent US20240425501A1, “NOVEL BICYCLIC HETEROARYL DERIVATIVES AS SOS1:KRAS PROTEINPROTEIN INTERACTION INHIBITORS” (SATYARX PHARMA INNOVATIONS PVT LTD, priority 2021, published 2024).
